According to patent publication US9341616B2, “Sweet taste receptor chimeric proteins and use thereof” (AJINOMOTO CO., INC., priority 2014, dated 2016):
Like-named read-outs stand apart in the source and are kept apart here. Residues, ends and D or L forms follow the SMILES beside them.

Target: h-mT1R2-481/T1R3mosaicA (UniProt Q8TE23+Q925D8, A12W/A31M/A537S/A558R/A564V/A568V/A570T/A588V/A645S/A649T/A658V/A698V/A702T/A782V/A793V/A807V/C582S/C678S/E16H/E530V/E534N/E542M/E548N/E725V/F14L/F29L/F525Y/F541I/F612A/F622V/F665L/F695L/G696N/G701T/H484Y/H528R/H728R/I36V/I481V/I486P/I490V/I510L/I518V/I595M/I60P/I617V/I643V/I645L/I692L/I695G/I706V/I740A/I803L/K30R/K504M/K555R/K565R/K626T/K714N/K818R/K827G/L17P/L521P/L560F/L571I/L578I/L610P/L631F/L636F/L639V/L684P/L688V/L702I/L734M/L735F/L800F/L823M/L825Q/M19T/M492I/M616G/M644L/M682V/M690V/M744T/M748V/N52R/N540G/N541S/N547G/N58S/N63T/N675D/N721H/P545F/P561R/P564S/P61V/P638T/P824S/Q32K/Q536L/Q53S/Q546K/Q550E/Q555R/Q56R/Q611L/Q676H/Q757R/Q795R/Q831P/R498S/R632Q/R667S/S22P/S45E/S501P/S547N/S550A/S576L/S595F/S610P/S628F/S635P/S637R/S663R/S670G/S679G/S681F/S703N/S717H/S727G/S784D/S804G/T46A/T50G/T529S/T542A/T549I/T609V/T629S/T642S/T663I/T694M/T705I/T706G/T716I/T813A/V508I/V512P/V557A/V573A/V584A/V585L/V613L/V617M/V673M/V687A/V691A/V694A/V718L/V718M/V723A/V729T/V738A/V741L/V774I/V791M/V805L/V812A/V821L/W599R/W676R/W824R/Y533F/Y615F/Y671F/Y680C/Y769S/Y783H/Y794L)
Conditions: HEK293E cells
[1] = Table 3, genes h-mT481/T3mA (h-mT1R2-481, T1R3mA)
[2] = Table 4, genes h-mT481/T3mA (h-mT1R2-481, T1R3mA)
[3] = Table 5, genes h-mT481/T3mA (h-mT1R2-481, T1R3mA)
[4] = Table 6, genes h-mT481/T1Rm3A (h-mT1R2-481, T1R3mA)

h-mT1R2-481/T1R3mosaicA, sequence (Q8TE23 with tags, fused parts or gaps with the stated changes limits assumed): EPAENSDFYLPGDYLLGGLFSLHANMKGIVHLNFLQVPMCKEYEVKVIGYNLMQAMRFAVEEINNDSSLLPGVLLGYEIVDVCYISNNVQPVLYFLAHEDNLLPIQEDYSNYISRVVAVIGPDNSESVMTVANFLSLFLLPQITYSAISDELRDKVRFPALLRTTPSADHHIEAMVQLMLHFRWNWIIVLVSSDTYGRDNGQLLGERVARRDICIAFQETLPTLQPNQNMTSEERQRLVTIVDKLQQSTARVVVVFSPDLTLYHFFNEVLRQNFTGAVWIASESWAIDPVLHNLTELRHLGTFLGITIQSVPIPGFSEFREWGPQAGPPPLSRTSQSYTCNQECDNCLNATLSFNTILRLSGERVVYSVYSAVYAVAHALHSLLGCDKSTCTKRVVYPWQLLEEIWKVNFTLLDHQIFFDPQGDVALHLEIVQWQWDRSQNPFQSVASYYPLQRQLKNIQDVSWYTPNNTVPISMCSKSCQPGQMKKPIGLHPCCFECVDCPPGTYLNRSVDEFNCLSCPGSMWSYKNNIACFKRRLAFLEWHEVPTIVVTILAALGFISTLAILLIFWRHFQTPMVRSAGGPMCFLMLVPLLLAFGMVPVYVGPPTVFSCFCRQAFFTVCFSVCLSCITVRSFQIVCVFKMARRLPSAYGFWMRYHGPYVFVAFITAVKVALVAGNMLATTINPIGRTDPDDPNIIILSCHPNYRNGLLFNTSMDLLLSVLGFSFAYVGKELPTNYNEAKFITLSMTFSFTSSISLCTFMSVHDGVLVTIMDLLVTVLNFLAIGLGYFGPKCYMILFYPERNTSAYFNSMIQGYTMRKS
h-mT1R2-481/T1R3mosaicA, sequence (Q925D8 with tags, fused parts or gaps with the stated changes limits assumed): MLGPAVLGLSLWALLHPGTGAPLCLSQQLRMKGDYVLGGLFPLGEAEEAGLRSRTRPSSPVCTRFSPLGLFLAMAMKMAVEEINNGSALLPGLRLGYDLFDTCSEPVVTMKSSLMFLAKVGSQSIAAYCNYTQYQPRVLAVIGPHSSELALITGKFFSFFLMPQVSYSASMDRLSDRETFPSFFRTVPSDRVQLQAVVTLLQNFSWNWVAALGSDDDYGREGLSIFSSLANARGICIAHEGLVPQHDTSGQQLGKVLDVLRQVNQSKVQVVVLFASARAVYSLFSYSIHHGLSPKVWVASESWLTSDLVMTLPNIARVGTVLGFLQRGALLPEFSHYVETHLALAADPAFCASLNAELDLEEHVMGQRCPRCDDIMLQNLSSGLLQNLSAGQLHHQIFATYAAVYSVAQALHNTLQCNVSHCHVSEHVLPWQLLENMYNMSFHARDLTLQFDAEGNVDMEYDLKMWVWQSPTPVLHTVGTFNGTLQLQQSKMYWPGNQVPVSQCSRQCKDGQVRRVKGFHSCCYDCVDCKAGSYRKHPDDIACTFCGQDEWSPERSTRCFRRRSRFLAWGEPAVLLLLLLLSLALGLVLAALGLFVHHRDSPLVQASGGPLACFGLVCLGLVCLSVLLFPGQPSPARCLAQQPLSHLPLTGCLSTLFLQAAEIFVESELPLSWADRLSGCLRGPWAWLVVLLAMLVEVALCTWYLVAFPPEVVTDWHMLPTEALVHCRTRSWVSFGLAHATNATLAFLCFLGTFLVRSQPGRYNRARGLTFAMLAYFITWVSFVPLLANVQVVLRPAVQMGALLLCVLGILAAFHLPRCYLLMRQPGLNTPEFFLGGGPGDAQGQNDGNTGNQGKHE

`COC(=O)[C@H](Cc1ccccc1)NC(=O)[C@H](CC(=O)O)NCCC(C)(C)C` [Neotame, neotame] showed a S/N [1] of 8.8, a S/N [2] of 9.4 and a S/N [3] of 8.8. The S/N [4] was 8.9.
`COC(=O)[C@H](Cc1ccccc1)NC(=O)[C@H](CC(=O)O)NCCCc1ccc(OC)c(O)c1` [Advantame, advantame] was tested, and the S/N [1] was 10.6, the S/N [2] was 11.3 and the S/N [3] was 10.6. For the same molecule, the S/N [4] was 10.5.
`OC[C@H]1O[C@@](CO)(O[C@H]2O[C@H](CO)[C@@H](O)[C@H](O)[C@H]2O)[C@@H](O)[C@@H]1O` [Sucrose, sucrose] showed a S/N [1] of 3.4, a S/N [2] of 3.9 and a S/N [3] of 3.4. It also gave a S/N [4] of 3.8.
`COC(=O)[C@H](Cc1ccccc1)NC(=O)[C@@H](N)CC(=O)O` [Aspartame, aspartame] (HELM PEPTIDE1{D.F.[CO[*:1]]}$$$$V2.0) gave a S/N [1] of 7.0, a S/N [2] of 9.4 and a S/N [3] of 7.0. For the same molecule, the S/N [4] was 7.3.
`O=C1NS(=O)(=O)c2ccccc21.[Na]` [Saccharin Na, sodium saccharin] gave a S/N [1] of 5.6, a S/N [2] of 5.6 and a S/N [3] of 5.6. The S/N [4] was 6.9.
For `C[C@H](NC(=Nc1ccc(C#N)cc1)NCC(=O)O)c1ccccc1` [SC-45647, [3-[(S)-1-phenylethyl]-2-(4-cyanophenyl)guanidino]acetic acid], the S/N [1] was 8.4, the S/N [2] was 7.9 and the S/N [3] was 8.4. For the same molecule, the S/N [4] was 8.7.
`OC[C@H]1O[C@H](O[C@]2(CCl)O[C@H](CCl)[C@@H](O)[C@@H]2O)[C@H](O)[C@@H](O)[C@H]1Cl` [Sucralose, sucralose] showed a S/N [1] of 7.8, a S/N [2] of 9.0 and a S/N [3] of 7.8. The S/N [4] was 7.0.
Molecule `COc1ccc(CCC(=O)c2c(O)cc(O[C@@H]3O[C@H](CO)[C@@H](O)[C@H](O)[C@H]3O[C@@H]3O[C@@H](C)[C@H](O)[C@@H](O)[C@H]3O)cc2O)cc1O` [NHDC, neohesperidin dihydrochalcone] has a S/N [3] of 4.3 and a S/N [4] of 5.9.
`CC1=CC(=O)NS(=O)(=O)O1` [Acesulfame K, acesulfame potassium] gave a S/N [1] of 4.7, a S/N [2] of 5.4 and a S/N [3] of 4.7. The S/N [4] was 6.0.
